Literature values as cited in publication PMC9851200, “Multiparameter phenotypic screening for endogenous TFEB and TFE3 translocation identifies novel chemical series modulating lysosome function” (Autophagy, 2022).

Assays:
Parameters in all cases: method as in original PKIS2 published data
[1] = target: kinases (KINOMEscan panel) (Homo sapiens, UniProt P27448); conditions: MARK3; Published KINOMEscan; ref original PKIS2 published data; cited from earlier work
[2] = target: kinases (KINOMEscan panel) (Homo sapiens, UniProt P51451); conditions: kinase BLK; Published KINOMEscan; ref original PKIS2 published data; cited from earlier work
[3] = target: kinases (KINOMEscan panel) (Homo sapiens, UniProt P11362); conditions: kinase FGFR1; Published KINOMEscan; ref original PKIS2 published data; cited from earlier work
[4] = target: kinases (KINOMEscan panel) (Homo sapiens, UniProt Q04759); conditions: kinase PRKCQ; Published KINOMEscan; ref original PKIS2 published data; cited from earlier work
[5] = target: kinases (KINOMEscan panel) (Homo sapiens, UniProt Q8IU85); conditions: kinase CAMK1D; Published KINOMEscan; ref original PKIS2 published data; cited from earlier work
[6] = target: T1, kinases (KINOMEscan panel) (Homo sapiens, UniProt O00444); conditions: kinase PLK4; Published KINOMEscan; ref original PKIS2 published data; cited from earlier work
T1 sequence (O00444 1-970): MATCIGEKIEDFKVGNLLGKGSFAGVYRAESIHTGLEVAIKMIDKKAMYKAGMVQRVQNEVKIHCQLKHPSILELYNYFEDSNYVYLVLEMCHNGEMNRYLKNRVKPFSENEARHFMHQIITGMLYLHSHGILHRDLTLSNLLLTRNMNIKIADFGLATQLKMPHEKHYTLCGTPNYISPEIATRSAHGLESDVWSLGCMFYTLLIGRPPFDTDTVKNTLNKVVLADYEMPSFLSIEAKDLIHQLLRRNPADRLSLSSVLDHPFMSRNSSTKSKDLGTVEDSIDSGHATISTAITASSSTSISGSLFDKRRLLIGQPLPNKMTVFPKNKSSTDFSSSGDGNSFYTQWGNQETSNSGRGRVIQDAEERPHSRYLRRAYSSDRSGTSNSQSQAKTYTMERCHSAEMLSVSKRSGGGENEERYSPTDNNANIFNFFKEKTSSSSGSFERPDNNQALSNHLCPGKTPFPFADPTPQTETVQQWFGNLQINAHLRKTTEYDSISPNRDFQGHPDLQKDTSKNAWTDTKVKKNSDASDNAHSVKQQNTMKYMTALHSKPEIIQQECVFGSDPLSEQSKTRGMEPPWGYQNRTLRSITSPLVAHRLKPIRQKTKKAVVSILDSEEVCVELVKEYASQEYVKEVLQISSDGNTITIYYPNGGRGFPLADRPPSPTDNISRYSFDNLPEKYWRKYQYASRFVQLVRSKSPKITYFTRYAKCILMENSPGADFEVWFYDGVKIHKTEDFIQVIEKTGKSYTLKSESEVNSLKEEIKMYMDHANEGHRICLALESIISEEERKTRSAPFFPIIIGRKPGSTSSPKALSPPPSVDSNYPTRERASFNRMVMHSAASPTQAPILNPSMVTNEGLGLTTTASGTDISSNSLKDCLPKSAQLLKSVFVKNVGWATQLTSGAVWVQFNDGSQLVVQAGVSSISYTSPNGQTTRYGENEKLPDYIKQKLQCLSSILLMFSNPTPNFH

[7] = target: T2, kinases (KINOMEscan panel) (Homo sapiens, UniProt Q13237); conditions: PRKG2; Published KINOMEscan; ref original PKIS2 published data; cited from earlier work
T2 sequence (Q13237 1-762): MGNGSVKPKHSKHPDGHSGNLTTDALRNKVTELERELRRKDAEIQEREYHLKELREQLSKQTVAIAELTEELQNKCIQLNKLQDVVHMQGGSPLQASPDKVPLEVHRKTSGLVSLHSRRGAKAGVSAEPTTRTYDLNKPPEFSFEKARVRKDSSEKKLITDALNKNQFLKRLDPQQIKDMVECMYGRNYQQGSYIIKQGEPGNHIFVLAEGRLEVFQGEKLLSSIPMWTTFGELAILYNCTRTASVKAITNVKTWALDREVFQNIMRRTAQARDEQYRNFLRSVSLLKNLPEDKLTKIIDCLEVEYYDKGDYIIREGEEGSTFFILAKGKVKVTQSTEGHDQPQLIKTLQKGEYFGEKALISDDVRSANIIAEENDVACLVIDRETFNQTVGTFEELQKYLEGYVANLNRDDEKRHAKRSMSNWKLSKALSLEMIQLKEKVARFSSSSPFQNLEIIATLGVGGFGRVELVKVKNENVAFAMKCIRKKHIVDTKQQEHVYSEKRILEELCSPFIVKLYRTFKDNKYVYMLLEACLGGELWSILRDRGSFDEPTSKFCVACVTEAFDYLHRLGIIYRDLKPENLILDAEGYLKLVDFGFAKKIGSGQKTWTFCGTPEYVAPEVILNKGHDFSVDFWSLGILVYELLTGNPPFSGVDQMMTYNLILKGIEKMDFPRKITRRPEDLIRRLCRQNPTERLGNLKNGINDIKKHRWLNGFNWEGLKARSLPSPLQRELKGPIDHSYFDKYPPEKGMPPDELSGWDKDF

[8] = target: kinases (KINOMEscan panel) (Homo sapiens, UniProt O75914); conditions: Published KINOMEscan; ref original PKIS2 published data; cited from earlier work
kinases (KINOMEscan panel) (Homo sapiens, UniProt O75914), sequence (O75914 whole entry): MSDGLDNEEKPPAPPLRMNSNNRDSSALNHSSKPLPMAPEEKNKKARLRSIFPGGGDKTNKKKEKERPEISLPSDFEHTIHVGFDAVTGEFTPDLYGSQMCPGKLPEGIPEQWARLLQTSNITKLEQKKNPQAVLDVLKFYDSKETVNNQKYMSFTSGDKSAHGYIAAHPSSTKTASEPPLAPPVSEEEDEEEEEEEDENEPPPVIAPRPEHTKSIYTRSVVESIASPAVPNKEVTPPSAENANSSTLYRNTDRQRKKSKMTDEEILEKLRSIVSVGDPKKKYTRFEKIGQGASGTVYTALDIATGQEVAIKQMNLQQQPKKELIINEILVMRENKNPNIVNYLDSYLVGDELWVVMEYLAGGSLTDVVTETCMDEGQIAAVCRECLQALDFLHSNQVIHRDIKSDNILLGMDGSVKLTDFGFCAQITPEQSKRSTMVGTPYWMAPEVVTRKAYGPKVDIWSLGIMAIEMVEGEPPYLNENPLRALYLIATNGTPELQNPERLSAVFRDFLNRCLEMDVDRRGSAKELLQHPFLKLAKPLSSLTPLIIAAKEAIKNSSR

kinases (KINOMEscan panel) (Homo sapiens, UniProt P27448), sequence (P27448 whole entry): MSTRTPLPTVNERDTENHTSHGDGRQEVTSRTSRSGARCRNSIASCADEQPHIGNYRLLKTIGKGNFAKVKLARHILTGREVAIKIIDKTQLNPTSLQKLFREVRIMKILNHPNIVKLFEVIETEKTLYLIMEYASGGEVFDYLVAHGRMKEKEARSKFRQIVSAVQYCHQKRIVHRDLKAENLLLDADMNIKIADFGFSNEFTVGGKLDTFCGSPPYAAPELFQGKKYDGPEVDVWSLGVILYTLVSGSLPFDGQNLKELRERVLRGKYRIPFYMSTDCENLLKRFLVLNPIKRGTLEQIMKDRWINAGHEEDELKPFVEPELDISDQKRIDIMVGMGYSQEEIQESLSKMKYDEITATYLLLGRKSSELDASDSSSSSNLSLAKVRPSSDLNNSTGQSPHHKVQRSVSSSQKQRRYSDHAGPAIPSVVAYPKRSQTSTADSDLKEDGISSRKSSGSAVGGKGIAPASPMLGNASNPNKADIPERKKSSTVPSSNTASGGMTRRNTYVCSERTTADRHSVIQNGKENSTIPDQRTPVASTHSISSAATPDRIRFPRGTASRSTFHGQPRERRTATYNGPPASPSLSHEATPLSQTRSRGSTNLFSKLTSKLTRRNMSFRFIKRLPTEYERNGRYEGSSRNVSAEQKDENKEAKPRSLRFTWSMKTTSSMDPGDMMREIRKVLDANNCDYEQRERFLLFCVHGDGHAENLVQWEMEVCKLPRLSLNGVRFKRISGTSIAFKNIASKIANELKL
kinases (KINOMEscan panel) (Homo sapiens, UniProt Q04759), sequence (Q04759 whole entry): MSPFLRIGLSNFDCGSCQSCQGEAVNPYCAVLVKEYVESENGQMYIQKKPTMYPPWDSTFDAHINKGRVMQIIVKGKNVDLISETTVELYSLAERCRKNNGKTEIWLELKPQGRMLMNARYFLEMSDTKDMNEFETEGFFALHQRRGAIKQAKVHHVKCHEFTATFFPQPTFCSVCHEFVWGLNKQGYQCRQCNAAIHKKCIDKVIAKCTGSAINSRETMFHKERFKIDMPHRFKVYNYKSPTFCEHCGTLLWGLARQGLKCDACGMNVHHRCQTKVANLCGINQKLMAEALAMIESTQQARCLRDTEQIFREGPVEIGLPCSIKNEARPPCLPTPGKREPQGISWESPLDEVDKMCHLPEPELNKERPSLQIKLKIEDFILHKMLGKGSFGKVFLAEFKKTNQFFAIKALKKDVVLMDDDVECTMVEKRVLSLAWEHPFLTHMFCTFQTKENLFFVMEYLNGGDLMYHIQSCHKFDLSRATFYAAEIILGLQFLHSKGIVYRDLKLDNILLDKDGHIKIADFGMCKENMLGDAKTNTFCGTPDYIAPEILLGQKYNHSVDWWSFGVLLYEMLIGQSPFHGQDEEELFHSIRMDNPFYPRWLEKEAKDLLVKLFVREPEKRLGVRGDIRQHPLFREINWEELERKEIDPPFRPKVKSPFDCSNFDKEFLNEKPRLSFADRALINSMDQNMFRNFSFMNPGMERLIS
kinases (KINOMEscan panel) (Homo sapiens, UniProt P11362), sequence (P11362 22-822): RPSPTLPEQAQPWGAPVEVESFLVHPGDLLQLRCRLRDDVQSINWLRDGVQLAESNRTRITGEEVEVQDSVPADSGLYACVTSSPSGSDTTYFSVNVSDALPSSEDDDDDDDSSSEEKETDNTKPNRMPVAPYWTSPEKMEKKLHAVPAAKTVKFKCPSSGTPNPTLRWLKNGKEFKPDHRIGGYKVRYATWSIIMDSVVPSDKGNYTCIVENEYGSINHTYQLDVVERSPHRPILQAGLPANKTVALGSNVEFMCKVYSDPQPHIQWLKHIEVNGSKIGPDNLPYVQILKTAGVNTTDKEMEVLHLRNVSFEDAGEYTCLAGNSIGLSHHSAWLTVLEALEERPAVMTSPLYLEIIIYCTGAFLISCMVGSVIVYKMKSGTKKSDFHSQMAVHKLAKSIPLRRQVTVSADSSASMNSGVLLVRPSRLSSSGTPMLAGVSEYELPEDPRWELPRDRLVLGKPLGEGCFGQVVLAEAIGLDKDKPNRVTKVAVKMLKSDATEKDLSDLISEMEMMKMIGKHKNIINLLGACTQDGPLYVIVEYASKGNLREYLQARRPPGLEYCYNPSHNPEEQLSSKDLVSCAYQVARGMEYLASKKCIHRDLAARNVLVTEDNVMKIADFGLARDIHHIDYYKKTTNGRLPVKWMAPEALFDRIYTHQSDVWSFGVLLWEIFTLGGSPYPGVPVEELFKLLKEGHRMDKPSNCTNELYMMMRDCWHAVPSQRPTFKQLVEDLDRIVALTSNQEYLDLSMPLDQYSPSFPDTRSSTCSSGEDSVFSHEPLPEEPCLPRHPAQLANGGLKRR
kinases (KINOMEscan panel) (Homo sapiens, UniProt Q8IU85), sequence (Q8IU85 whole entry): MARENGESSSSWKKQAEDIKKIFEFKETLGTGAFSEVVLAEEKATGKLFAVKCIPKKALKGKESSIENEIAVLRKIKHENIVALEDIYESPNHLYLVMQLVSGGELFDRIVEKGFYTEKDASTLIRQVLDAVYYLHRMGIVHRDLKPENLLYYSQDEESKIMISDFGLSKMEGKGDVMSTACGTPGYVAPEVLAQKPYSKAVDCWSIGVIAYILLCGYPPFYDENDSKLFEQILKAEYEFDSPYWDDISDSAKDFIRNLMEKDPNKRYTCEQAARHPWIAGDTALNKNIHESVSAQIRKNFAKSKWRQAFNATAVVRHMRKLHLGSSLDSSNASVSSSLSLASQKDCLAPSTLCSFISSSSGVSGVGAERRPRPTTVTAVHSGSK
kinases (KINOMEscan panel) (Homo sapiens, UniProt P51451), sequence (P51451 whole entry): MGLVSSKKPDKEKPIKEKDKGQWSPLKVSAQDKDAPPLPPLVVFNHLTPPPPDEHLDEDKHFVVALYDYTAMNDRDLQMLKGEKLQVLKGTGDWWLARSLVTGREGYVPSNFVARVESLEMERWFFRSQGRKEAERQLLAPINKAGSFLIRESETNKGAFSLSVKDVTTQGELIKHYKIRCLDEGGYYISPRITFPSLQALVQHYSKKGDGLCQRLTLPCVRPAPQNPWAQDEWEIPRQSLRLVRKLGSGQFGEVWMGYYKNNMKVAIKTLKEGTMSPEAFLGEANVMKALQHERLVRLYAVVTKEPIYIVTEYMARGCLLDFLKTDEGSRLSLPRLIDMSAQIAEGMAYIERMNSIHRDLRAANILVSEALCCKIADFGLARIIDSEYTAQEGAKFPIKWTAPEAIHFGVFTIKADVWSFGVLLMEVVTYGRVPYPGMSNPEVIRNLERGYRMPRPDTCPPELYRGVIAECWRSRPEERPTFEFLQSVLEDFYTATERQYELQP

Cc1cccc(-c2nc(Nc3ccncc3)c3ccccc3n2)n1 [NK215]
KINOMEscan MARK3 [1]: 32
KINOMEscan BLK [2]: 1
KINOMEscan FGFR1 [3]: 5
KINOMEscan PRKCQ [4]: 0
KINOMEscan CAMK1D [5]: 3
KINOMEscan PLK4 [6]: 0
KINOMEscan PRKG2 [7]: 0
KINOMEscan PAK3 [8]: 0
